Measurements published in patent US6465429B1, “Antimicrobial cationic peptides” (priority 1995, dated 2002).
Several values for one entry are separate records, joined by “and”; a condition that tells them apart may be missing. Equal values may be shown once. Entries after “also recorded” stand apart in the source; their conditions may differ. Ends that are not written are not given here.

Legend:
[1] = Synergy of MBI 26 with lysozyme and further antibiotics (reduction in MIC); type: cell-based; conditions: in combination with MBI 26 (1.25 μg/mL)
Red Blood Cells = assay: Red Blood Cell lysis; type: cell-based
E. coli ML 35 = assay: Inner membrane permeabilization (β-galactosidase, ONPG); type: cell-based; conditions: for Lag Time / Rate of Hydrolysis: inner membrane permeabilization; for Lag Time: E. coli ML 35; for Rate of Hydrolysis: E. coli ML 35, ONPG
Protocol: Inner membrane permeability was determined by measurement in E. coli ML 35 of β-galactosidase activity using ONPG as a substrate. Normally ONPG cannot pass across the cytoplasmic membrane to permit hydrolysis by the cytoplasmic enzyme β-galactosidase. However, cationic peptides, by permeabilizing the inner membrane, unmasks this enzyme leading to color development as ONP is released. […] Addition of citrate increased the lag time before the peptides were able to permeabilize the membranes. When the experiments were executed in cation adjusted media (CAMHB), the lag time was increased up to 30 minutes.

[2] = Dansyl polymyxin displacement assay; type: binding; conditions: Dansyl polymyxin displacement from LPS
Source text: In addition, the peptides of SEQ ID NO: 5-8 also bound effectively to LPS with high affinity based on Dansyl polymyxin displacement assays (Table 5).

[3] = α helical content by CD spectra; type: physicochemical
Protocol: The α helical content of the peptides were measured in buffer, liposomes and 20% Hexafluoroisopropanol (HFPIP). The liposomes constituted of POPC alone or POPC PC and 30% POPG (Table 7).

P. aeruginosa = assay: microbe, parasite or virus in culture; conditions: agent alone
Protocol: FICs are performed by checkerboard titrations of peptides in one dimension of a microtiter plate, and of antibiotics in the other dimension, for example. The FIC is calculated by looking at the impact of one antibiotic on the MIC of the other and vice versa. […] Preferably, an FIC of less than 0.5 is obtained for synergism. As used herein, FIC can be determined as follows: [formula]
Synergism is identified as an FIC of about ≦0.5.

[4] = system: LPS-induced TNF in RAW 264.7 macrophage cells; assay: Inhibition of LPS-mediated TNF induction in macrophages (L929 cytotoxic assay); type: cell-based
Protocol: RAW 264.7 macrophage cells were grown by seeding 10^6 cells into a 162 cm^2 cell culture flask and incubated at 37° C., 5%CO2 for 1 week. RAW cell media [(Dulbecco's Modified Eagle Medium with Hepes buffer 450 ml; 2.4 mML-glutamine 3 ml (400 mM); Pen/Strep 3 ml (10^4U/ml of Pen, 1 mg/ml strep); and 10% heat inactivated fetal bovine serum (FBS) 50 ml)] was then completely removed from flasks. 10 mls of cell dissociation solution (Sigma) was added to each flask and inc; bated at 37° C. for 10 minutes. Cells were removed from flasks, diluted in RAW cell media and centrifuged for 6 minutes. The cell pellet was resuspended in 5 ml of media/flask used, 100 μl cell suspension was removed and added to 400 ∥l of trypan blue and cells were counted using a hemocytometer. The cell suspension was diluted to 1×10^6 cells/ml and 1 ml of suspension was added per well of a 24 well plate. The 24 well plates were incubated at 37° C., 5% CO2 overnight for use in the assay.
After an overnight incubation, the media was aspirated from all the wells. 100 μl of Lipopolysaccharide (LPS) was added at 100 ng/100 μl. CEME, CEMA or MBI 29 was added at the desired concentration/100 μl to specified wells. […] The plates were then incubated for six hours at 37° C., 5% CO2. The supernatant was then removed from the wells and stored overnight at 4° C. For those wells in which whole bacteria were added directly to the wells, the supernatant was centrifuged in 0.2 μm filter eppendorf tubes for 5 minutes.
The supernatants were then used in cell cytotoxic L929 assay. The samples were transferred to 96 well plates. […]
TNF-sensitive L929 mouse fibroblast cells were grown by seeding 10^6 cells into a 162 cm^2 cell culture flask and left to grow for 1 week. […] The pellet was resuspended in 5 mls of fresh L929 media/flask and counted (same as RAW cells). […]
The plates were read at 570 nm in a ELISA plate reader with 690 nm reference filter. […]
In order to determine how rapidly the cationic peptides reduced LPS-induced TNF production, E. coli 0111:B4 was added at time 0 to RAW macrophages. […] Levels of TNF were measured after 6 hours. […]

RAW cells = assay: RAW cell viability by Trypan blue exclusion; type: cell-based
Candida albicans = assay: MIC, broth dilution in LB-S; type: cell-based; set-up: unit not given beside the values; conditions: Candida albicans (CAN105); Table 1a
Protocol: The biological activity of the peptides can be determined by standard methods known to those of skill in the art, such as “minimal inhibitory concentration (MIC)” assay described in the present examples, whereby the lowest concentration at which no change in OD is observed for a given period of time is recorded as MIC. Alternatively, “fractional inhibitory concentration (FIC)” is also useful for determination of synergy between the peptides of the invention, or the peptides in combination with known antibiotics. FICs are performed by checkerboard titrations of peptides in one dimension of a microtiter plate, and of antibiotics in the other dimension, for example. The FIC is calculated by looking at the impact of one antibiotic on the MIC of the other and vice versa. […] Preferably, an FIC of less than 0.5 is obtained for synergism. As used herein, FIC can be determined as follows: [formula]
Briefly, cells were grown overnight at 37° C. in LB-S (Luria broth without any salt supplement) and diluted one in 10,000 in the same medium to give concentrations of about 10^4 to 10^5 CFU/ml. The broth dilutions were set up in a 96 well microtiter plate by putting 200 μl of LB-S containing the initial concentration of antibiotic or compound in column 1 and 100 μl of the same medium in columns 2-12. […] The next day the plates were scored for growth in the wells, and the MIC determined.

Compound	reduction in MIC [1] [×]	RBC Lysis (Red Blood Cells) [µg/mL]	Lag Time (E. coli ML 35) [s]	Rate of Hydrolysis (E. coli ML 35)	Imax [2] [%]	% α helicity ([3]; 20% HFIP) [%]	% α helicity ([3]; Buffer) [%]	% α helicity ([3]; POPC Liposomes) [%]	% α helicity ([3]; POPC/POPG Liposomes) [%]	other results
CO[C@@H]1[C@@H](OC(N)=O)[C@@H](O)[C@H](Oc2ccc3c(O)c(NC(=O)c4ccc(O)c(CC=C(C)C)c4)c(=O)oc3c2C)OC1(C)C [Novobiocin]	> 4									
CC1(C)S[C@@H]2[C@H](NC(=O)C(C(=O)O)c3ccccc3)C(=O)N2[C@H]1C(=O)O (some centres unmarked) [carbenicillin]	2									
Lysozyme	> 64									
KWKSFIKNLEKVLKKGPILANLVSIV [compound 491]		>55	152	0.14 ΔAU min^−1	24	44	0	0	15	
CC[C@H](C)[C@H](NC(=O)[C@H](CC(C)C)NC(=O)[C@H](C)NC(=O)[C@@H]1CCCN1C(=O)[C@H](CC(C)C)NC(=O)CNC(=O)[C@@H](NC(=O)[C@@H](NC(=O)[C@H](CC(C)C)NC(=O)[C@@H](NC(=O)[C@H](CCCCN)NC(=O)[C@H](CCCCN)NC(=O)[C@@H](NC(=O)[C@H](C)NC(=O)[C@@H](NC(=O)[C@@H](NC(=O)[C@H](CC(C)C)NC(=O)[C@H](CCCCN)NC(=O)[C@H](CCCCN)NC(=O)[C@@H](NC(=O)[C@H](Cc1ccccc1)NC(=O)[C@H](CO)NC(=O)[C@H](CCCCN)NC(=O)[C@H](Cc1c[nH]c2ccccc12)NC(=O)[C@@H](N)CCCCN)[C@@H](C)CC)[C@@H](C)O)[C@@H](C)O)C(C)C)C(C)C)[C@@H](C)O)[C@@H](C)O)C(=O)N[C@@H](CO)C(=O)O [MBI 29]		>55								effect of 5 mM Mg++ on inner membrane permeabilization (E. coli ML 35; 4 ug peptide, +5 mM Mg): the least affected by any of the conditions; MIC (P. aeruginosa; P. aeruginosa isolate 27, strain 14644): 128 µg/mL and 123 µg/mL; MIC (P. aeruginosa; P. aeruginosa isolate 28, strain 15036): 128 µg/mL; MIC (P. aeruginosa; Table 33, P. aeruginosa isolate 23, strain ATCC 27853): 32 μg · mL^1; MIC (P. aeruginosa; Table 33, P. aeruginosa isolate 24, strain 34): 16 μg · mL^1; MIC (P. aeruginosa; Table 33, P. aeruginosa isolate 25, strain 923-1): 32 μg · mL^1; MIC (P. aeruginosa; Table 33, P. aeruginosa isolate 26, strain 3101): 32 μg · mL^1; MIC (P. aeruginosa; Table 33, P. aeruginosa isolate 27, strain 14644): 32 μg · mL^1; MIC (P. aeruginosa; Table 33, P. aeruginosa isolate 28, strain 15036): 32 μg · mL^1; MIC (P. aeruginosa; Table 33, P. aeruginosa isolate 29, strain 15545): 32 μg · mL^1; MIC (P. aeruginosa; Table 33, P. aeruginosa isolate 30, strain B3999-1): 32 μg · mL^1; MIC (P. aeruginosa; Table 33, P. aeruginosa isolate 31, strain U7688-1): 32 μg · mL^1; MIC (P. aeruginosa; Table 33, P. aeruginosa isolate 32, strain W2897-1): 32 μg · mL^1; MIC (P. aeruginosa; Table 33, P. aeruginosa isolate 33, strain W5483-2): 32 μg · mL^1; TNF induction in washed RAW cells pre-incubated with peptide ([4]; 20 μg MBI 29 for 60 minutes, washed 3 times, then 10 ng or 100 ng LPS): 14,000-20,000 Units of TNF per ml; inhibition of TNF induction by LPS ([4]; E. coli 0111:B4 LPS, peptide added at 0, 30 and 60 minutes, TNF after 6 hours): inhibited TNF induction by LPS in a similar manner to polymyxin B; reduction of LPS-induced TNF when added after LPS ([4]; added 60 minutes after the addition of LPS): effective at reducing the ability of LPS to induce TNF; also recorded: distinct and reproducible advantage over polymyxin B; amount causing no apparent decrease in RAW cell viability (RAW cells): Up to 50 μg
KWKKFIKELQKVLAPGGLLSNIVTSL [compound 493]		>55	136	0.14 ΔAU min^−1	56	42	0	18	20	
KWKLFKKIGIGAVLKVLTTGLPALIS [CEME]										MIC (Candida albicans): ≧64
KWKSFIKNLEKVLKPGGLLSNIVTSL [compound 490]		>55	156	0.081 ΔAU min^−1	40	41	0	29	27	
